Read-outs that look alike come from different tables or passages of the source.
How the values were obtained:
UKE1 cells [1] = experiment: Growth inhibition GI50, UKE1 cells; format: cell-based
BRD4 [2] = molecular target: T1, BRD4 (Homo sapiens (Human), UniProt O60885); experiment: BRD4 DSF thermal shift (ΔTm); format: binding; details: for BRD4 DSF (ΔTm): Table 2; for DSF ΔTm: Table 1
MM1.S cells = experiment: Antiproliferative activity, MM1.S cells; format: cell-based; details: Homo sapiens; for GI50: Table 2, read-out: GI50 (MM1S); for IC50: Table 1 comments
Description: Cellular activity of promising compounds is assessed using MM.1S and MV4-11 AML cells using c-Myc levels as biomarker (6-12 hr treatment) and antiproliferative activity (48-72 hr treatment) as described (Ciceri et al., Dual kinase-bromodomain inhibitors for rationally designed polypharmacology. Nat Chem Biol 2014).

UKE1 cells [3] = experiment: Drug persistence of UKE1 cells under escalating drug concentration; format: cell-based; details: for development of drug persistence: UKE1 cells started at GI20, concentration doubled if growth >90% of DMSO; for final drug concentration at the end of the experiment: drug persistence experiment
Description: UKE1 cells were incubated with DMSO, MA9-060, fedratinib, or ruxolitinib at their respective GI20 concentrations. Cell growth was compared to DMSO. Cells were passed back to the same density after counting. Drug concentration was doubled if growth was >90% of DMSO. Fold GI20 is plotted vs time, with drug persistence represented by upward steps of the lines. The final MA9-060, ruxolitinib, and fedratinib concentrations at the end of the experiment were 0.15, 0.6 and 2.4 uM, respectively. Fedratinib-treated cells lost complete viability after about 30 days (after 3 weeks in 2.4 uM).

JAK2 = JAK2 (Homo sapiens (Human), UniProt O60674); experiment: JAK2 IC50; format: biochemical
BRD4 [4] = molecular target: T1, BRD4; experiment: BRD4 IC50; format: binding; details: Table 2
c-Myc = details: background, literature; cited from earlier work
BRD4-1 = BRD4-1 (Homo sapiens (Human), UniProt O60885); experiment: Estimated BRD4-1 IC50; format: binding; details: Table 1
[5] = Mouse microsome stability; format: in vitro ADME; details: Table 1 comments; meaning of % not stated
SET2 cells = experiment: Growth inhibition GI50, SET2 cells; format: cell-based; details: Homo sapiens, SET-2; Table 1 comments; unit printed only for the neighbouring values in the cell
BaF3-JAK2-VF cells = experiment: Growth inhibition GI50, BaF3-JAK2-VF cells; format: cell-based; details: Table 1 comments
[6] = UKE1, Table 2, read-out: GI50 (UKE1)
[7] = UKE1, Table 1 comments, read-out: GI50 (UKE1 cells)

Sequence of JAK2 (O60674 whole entry): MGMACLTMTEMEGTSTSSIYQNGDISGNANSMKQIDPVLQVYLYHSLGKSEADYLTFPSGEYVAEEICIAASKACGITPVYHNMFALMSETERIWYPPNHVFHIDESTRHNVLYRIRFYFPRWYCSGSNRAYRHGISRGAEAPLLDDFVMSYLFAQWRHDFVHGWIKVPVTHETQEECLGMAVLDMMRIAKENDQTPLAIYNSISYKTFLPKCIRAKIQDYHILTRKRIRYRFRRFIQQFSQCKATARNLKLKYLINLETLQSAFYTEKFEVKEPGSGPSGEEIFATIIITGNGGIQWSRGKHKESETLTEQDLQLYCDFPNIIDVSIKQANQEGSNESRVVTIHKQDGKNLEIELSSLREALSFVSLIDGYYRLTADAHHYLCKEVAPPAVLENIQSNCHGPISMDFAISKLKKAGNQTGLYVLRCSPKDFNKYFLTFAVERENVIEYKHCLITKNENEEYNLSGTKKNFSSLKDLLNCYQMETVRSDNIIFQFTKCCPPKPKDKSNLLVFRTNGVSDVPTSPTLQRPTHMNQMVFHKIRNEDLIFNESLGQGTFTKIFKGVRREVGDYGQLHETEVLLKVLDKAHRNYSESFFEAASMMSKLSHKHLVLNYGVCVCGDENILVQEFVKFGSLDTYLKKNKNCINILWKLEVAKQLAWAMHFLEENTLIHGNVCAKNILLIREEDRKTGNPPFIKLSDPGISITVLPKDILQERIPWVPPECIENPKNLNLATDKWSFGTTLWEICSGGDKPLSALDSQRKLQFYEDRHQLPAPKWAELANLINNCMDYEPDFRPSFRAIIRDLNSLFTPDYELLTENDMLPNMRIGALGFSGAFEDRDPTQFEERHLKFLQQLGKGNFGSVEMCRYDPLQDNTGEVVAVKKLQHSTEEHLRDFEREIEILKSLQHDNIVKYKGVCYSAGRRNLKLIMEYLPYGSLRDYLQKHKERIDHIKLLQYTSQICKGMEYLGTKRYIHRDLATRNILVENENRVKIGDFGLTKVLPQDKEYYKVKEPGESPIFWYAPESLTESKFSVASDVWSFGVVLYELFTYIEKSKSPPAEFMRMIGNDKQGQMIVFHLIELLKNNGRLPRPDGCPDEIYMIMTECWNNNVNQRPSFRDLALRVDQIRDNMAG

SMILES | GI50 (UKE1 cells [1]; [6]) [nM] | BRD4 DSF (ΔTm) (BRD4 [2]) [°C] | GI50 (MM1.S cells) [nM] | also measured
Cc1cnc(Nc2cc(F)c(C3CCN(C)CC3)cn2)nc1Nc1ccc2c(c1)N(S(=O)(=O)C(C)(C)C)CC2 [PN2-128, N^4-(1-(tert-Butylsulfonyl)indolin-6-yl)-N^2-(4-fluoro-5-(1-methylpiperidin-4-yl)pyridin-2-yl)-5-methylpyrimidine-2,4-diamine] | 207 | 12.8 | 186 | –
Cc1cnc(Nc2cc(F)c(C3CCN(C)CC3)cn2)nc1Nc1ccc(Cl)c(NS(=O)(=O)C(C)(C)C)c1 [PN1-064, N-(2-Chloro-5-((2-((4-fluoro-5-(1-methylpiperidin-4-yl)pyridin-2-yl)amino)-5-methylpyrimidin-4-yl)amino)phenyl)-2-methylpropane-2-sulfonamide] | 54 | 13.6 | 43 | –
Cc1cnc(Nc2ccc(N3CCN(C)CC3)c(F)c2)cc1Nc1cccc(S(=O)(=O)NC(C)(C)C)c1 [MA9-024, N-(Tert-butyl)-3-((2-((3-fluoro-4-(4-methylpiperazin-1-yl)phenyl)amino)-5-methylpyridin-4-yl)amino)benzenesulfonamide] | > 24000 | 4.1 | 4790 | –
Cc1cnc(Nc2ccc(OCCN3CCCC3)cc2)nc1Nc1cccc(S(=O)(=O)NC(C)(C)C)c1 [fedratinib] | – | – | – | development of drug persistence (UKE1 cells [3]): persistently grew in increasing concentrations; time until treated cells lost complete viability (UKE1 cells [3]; UKE1 cells, after 3 weeks in 2.4 uM): about 30 days; final drug concentration at the end of the experiment (UKE1 cells [3]; UKE1 cells): 2.4 µM
N#CC[C@H](C1CCCC1)n1cc(-c2ncnc3[nH]ccc23)cn1 [ruxolitinib] | – | – | – | development of drug persistence (UKE1 cells [3]): persistently grew in increasing concentrations; final drug concentration at the end of the experiment (UKE1 cells [3]; UKE1 cells): 0.6 µM
Cc1cnc(Nc2cc(F)cc(N3CCN(C)CC3)c2)nc1Nc1ccc(Cl)c(NS(=O)(=O)C(C)(C)C)c1 [MA9-062, N-(2-Chloro-5-((2-((3-fluoro-5-(4-methylpiperazin-1-yl)phenyl)amino)-5-methylpyrimidin-4-yl)amino)phenyl)-2-methylpropane-2-sulfonamide] | – | 11.3 | 160 | IC50 (JAK2; Table 2): 17 nM; IC50 (BRD4 [4]): 49 nM
Cc1cnc(Nc2cc(F)c(C3CCN(C)CC3)c(F)c2)nc1Nc1ccc2c(c1)N(S(=O)(=O)C(C)(C)C)CC2 [PN2-129, N^4-(1-(tert-butylsulfonyl)indolin-6-yl)-N^2-(3,5-difluoro-4-(1-methylpiperidin-4-yl)phenyl)-5-methylpyrimidine-2,4-diamine] | 222 | 13.8 | 152 | –
CC[C@@H]1C(=O)N(C)c2cnc(Nc3ccc(C(=O)NC4CCN(C)CC4)cc3OC)nc2N1C1CCCC1 [BI2536] | – | – | – | downregulation of c-Myc in MM.1S cells (c-Myc): strong downregulation
Cc1cnc(Nc2cc(F)c(C3CCN(C)CC3)cn2)nc1Nc1ccc(F)c(NS(=O)(=O)C(C)(C)C)c1 [PN2-089, N-(2-Fluoro-5-((2-((4-fluoro-5-(1-methylpiperidin-4-yl)pyridin-2-yl)amino)-5-methylpyrimidin-4-yl)amino)phenyl)-2-methylpropane-2-sulfonamide] | 134 | 13.4 | 72 | –
Cc1cnc(Nc2ccc(OCCN3CCCC3)cc2)nc1Nc1ccc2c(c1)N(S(=O)(=O)C(C)(C)C)CC2 [MA11-006, N4-(1-(tert-butylsulfonyl)indolin-6-yl)-5-methyl-N2-(4-(2-(pyrrolidin-1-yl)ethoxy)phenyl)pyrimidine-2,4-diamine] | 502 | 11.0 | 499 | –
Cc1cnc(Nc2ccc(N3CCN(C)CC3)c(F)c2)cc1Nc1cccc(NS(=O)(=O)C(C)(C)C)c1 [SY3-005, N-(3-((2-((3-Fluoro-4-(4-methylpiperazin-1-yl)phenyl)amino)-5-methylpyridin-4-yl)amino)phenyl)-2-methylpropane-2-sulfonamide] | 5300 | 6.0 | 3310 | IC50 (JAK2; Table 2): > 1000 nM; IC50 (BRD4 [4]): 3960 nM
Cc1cnc(Nc2ccc(N3CCNCC3)c(F)c2)nc1Nc1ccc(Cl)c(NS(=O)(=O)C(C)(C)C)c1 | – | – | – | DSF ΔTm (BRD4 [2]): 13 ± 0.05 °C; IC50 (BRD4-1): 1 nM; IC50 (JAK2; Table 1 comments, n = 2): 2.73 nM
Cc1cnc(Nc2ccc(C3CCN(C)CC3)c(F)c2)nc1Nc1cccc(NS(=O)(=O)C(C)(C)C)c1 [SY3-038, N-(3-((2-((3-Fluoro-4-(1-methylpiperidin-4-yl)phenyl)amino)-5-methylpyrimidin-4-yl)amino)phenyl)-2-methylpropane-2-sulfonamide] | 64 | 12.3 | – | IC50 (JAK2; Table 2): 0.7 nM; IC50 (BRD4 [4]): 87 nM
Cc1cnc(Nc2cc(F)cc(N3CCN(C)CC3)c2)nc1Nc1cccc(NS(=O)(=O)C(C)(C)C)c1 [SY3-040, N-(3-((2-((3-Fluoro-5-(4-methylpiperazin-1-yl)phenyl)amino)-5-methylpyrimidin-4-yl)amino)phenyl)-2-methylpropane-2-sulfonamide] | – | 11.1 | 220 | IC50 (JAK2; Table 2): 3.1 nM; IC50 (BRD4 [4]): 127 nM
Cc1cnc(Nc2ccc(C3CCN(C)CC3)c(F)c2)nc1Nc1cnc(Cl)c(NS(=O)(=O)C(C)(C)C)c1 [MA11-016, N-(2-chloro-5-((2-((3-fluoro-4-(1-methylpiperidin-4-yl)phenyl)amino)-5-methylpyrimidin-4-yl)amino)pyridin-3-yl)-2-methylpropane-2-sulfonamide] | 110 | 14.8 | – | –
Cc1cnc(Nc2ccc(C3CCN(C)CC3)cc2)nc1Nc1cccc(NS(=O)(=O)C(C)(C)C)c1 [SY3-034, 2-Methyl-N-(3-((5-methyl-2-((4-(1-methylpiperidin-4-yl)phenyl)amino)pyrimidin-4-yl)amino)phenyl)propane-2-sulfonamide] | 220 | 10.6 | 91 | IC50 (JAK2; Table 2): 1.6 nM
Cc1cnc(Nc2ccc(OCCN3CCCC3)c(F)c2)nc1Nc1ccc2c(c1)N(S(=O)(=O)C(C)(C)C)CC2 [MA11-007, N4-(1-(tert-butylsulfonyl)indolin-6-yl)-N2-(3-fluoro-4-(2-(pyrrolidin-1-yl)ethoxy)phenyl)-5-methylpyrimidine-2,4-diamine] | 260 | 13.7 | 135 | –
Cc1cnc(Nc2ccc(C3CCN(C)CC3)c(F)c2)nc1Nc1ccc2c(c1)N(S(=O)(=O)C(C)(C)C)CC2 [MA9-086, N4-(1-(Tert-butylsulfonyl)indolin-6-yl)-N2-(3-fluoro-4-(1-methylpiperidin-4-yl)phenyl)-5-methylpyrimidine-2,4-diamine] | – | 13.4 | 194 | IC50 (JAK2; Table 2): 1.1 nM; IC50 (BRD4 [4]): 6.4 nM
Cc1cnc(Nc2ccc(C3CCN(C)CC3)c(F)c2)nc1Nc1cccc(NS(=O)(=O)C(C)(C)C)c1 [drawing 13] | – | – | – | GI50 (UKE1 cells [1]; [7]): 110 nM; DSF ΔTm (BRD4 [2]): 12.3 °C
Cc1cnc(Nc2cc(F)c(C3CCN(C)CC3)c(F)c2)nc1Nc1cnc(Cl)c(NS(=O)(=O)C(C)(C)C)c1 [MA11-017, N-(2-chloro-5-((2-((3,5-difluoro-4-(1-methylpiperidin-4-yl)phenyl)amino)-5-methylpyrimidin-4-yl)amino)pyridin-3-yl)-2-methylpropane-2-sulfonamide] | 102 | 14.3 | – | –
Cc1cnc(Nc2ccc(C3CCN(C)CC3)cc2)nc1Nc1ccc(Cl)c(NS(=O)(=O)C(C)(C)C)c1 [MA9-050, N-(2-Chloro-5-((5-methyl-2-((4-(1-methylpiperidin-4-yl)phenyl)amino)pyrimidin-4-yl)amino)phenyl)-2-methylpropane-2-sulfonamide] | 310 | 12.3 | 110 | IC50 (JAK2; Table 2): 8.2 nM; IC50 (BRD4 [4]): 143 nM
Cc1cnc(Nc2ccc(N3CCN(CCCN)CC3)c(F)c2)nc1Nc1cccc(NS(=O)(=O)C(C)(C)C)c1 | – | – | – | DSF ΔTm (BRD4 [2]): 9.4 ± 0.09 °C; IC50 (BRD4-1): 15.7 nM
Cc1cnc(Nc2ccc(N3CCN(C)CC3)cc2)nc1Nc1cccc(S(=O)(=O)NC(C)(C)C)c1 [TG101209] | – | – | – | downregulation of c-Myc in MM.1S cells (c-Myc): strong downregulation
Cc1cnc(Nc2ccc(N3CCN(CCCN)CC3)c(F)c2)nc1Nc1ccc(Cl)c(NS(=O)(=O)C(C)(C)C)c1 | – | – | – | DSF ΔTm (BRD4 [2]): 11 ± 0.02 °C; IC50 (BRD4-1): 4.6 nM
Cc1cnc(Nc2ccc(C3CCN(C)CC3)cc2)nc1Nc1ccc(Cl)c(NS(=O)(=O)C(C)(C)C)c1 [drawing 11] | – | – | – | GI50 (UKE1 cells [1]; Table 1 comments, read-out: GI50 (UKE1 cells)): 340 nM; GI50 (UKE1 cells [1]; [7]): 280 nM; DSF ΔTm (BRD4 [2]): 12.3 °C; Mouse microsome [5]: 81%; GI50 (SET2 cells): 240 nM; IC50 (MM1.S cells): 110 nM; GI50 (BaF3-JAK2-VF cells): 99 nM
Cc1cnc(Nc2ccc(C3CCN(C)CC3)cc2)nc1Nc1cccc(NS(=O)(=O)C(C)(C)C)c1 [drawing 12] | – | – | – | GI50 (UKE1 cells [1]; [7]): 220 nM; DSF ΔTm (BRD4 [2]): 10.6 °C; IC50 (MM1.S cells): 91 nM

From patent US12391676B2 (H. LEE MOFFITT CANCER CENTER AND RESEARCH INSTITUTE, INC., priority 2018, dated 2025)
